Source: paper PMC9560598 (PLoS Pathogens, 2022)
Values joined by “and” are separate entries in the source; they are usually repeats but may differ in a detail not shown here. Equal values may be shown once. Read-outs that look alike come from different tables or passages of the source. Bridge positions count the residues as written; N and C are the ends. Ends that are not written are not given here. Peptide text beside a SMILES is read from it.

Experiments:
[1] = test system: encapsulated WT B. anthracis Ames bacilli; conditions: for killing: encapsulated WT Ames bacilli, 2 h
[2] = test system: non-encapsulated Sterne strain of B. anthracis; conditions: cited from earlier work
[3] = format: binding, Bacillus anthracis; conditions: n = 3
[4] = test system: encapsulated WT B. anthracis Ames bacilli; format: cell-based, Bacillus anthracis
[5] = test system: encapsulated killed WT B. anthracis bacilli; format: cell-based, Bacillus anthracis

Compound	% of 0 μg/ml Control, Mean [1]	killing ([1]; 20 μg/ml) [%]	Killing of the non-encapsulated Sterne strain [2]	Binding to purified capsule (shift in electrophoretic mobility towards the cathode) [3]	Concentrations at which bactericidal activity (significant killing) was observed [1] [µg/mL]	other results
CC[C@H](C)[C@@H]1NC(=O)[C@H](CCCCN)NC(=O)[C@H]([C@@H](C)O)NC(=O)[C@H](Cc2ccccc2)NC(=O)[C@H]([C@@H](C)CC)NC(=O)[C@@H]2CCCN2C(=O)[C@@H]2CSSC[C@@H](C(=O)N[C@@H](CCCCN)C(=O)O)NC(=O)[C@@H]3CSSC[C@H](NC(=O)[C@H](CC(N)=O)NC(=O)[C@H](Cc4ccc(O)cc4)NC(=O)[C@H](Cc4c[nH]cn4)NC(=O)[C@@H](N)CC(=O)O)C(=O)N[C@@H](C(C)C)C(=O)N[C@@H](CO)C(=O)N[C@@H](CO)C(=O)NCC(=O)NCC(=O)N[C@@H](CCC(N)=O)C(=O)N[C@@H](CSSC[C@H](NC(=O)[C@H]([C@@H](C)O)NC(=O)CNC(=O)[C@H](CCC(N)=O)NC1=O)C(=O)N[C@@H](Cc1ccc(O)cc1)C(=O)N[C@@H](CCCNC(=N)N)C(=O)NCC(=O)N[C@@H](CCCCN)C(=O)N[C@@H](C)C(=O)N[C@@H](CCCCN)C(=O)N3)C(=O)N[C@@H](CC(C)C)C(=O)N[C@@H](Cc1ccc(O)cc1)C(=O)N[C@@H](CO)C(=O)N[C@@H](C)C(=O)N2 [HBD-1] (H-DHYNCVSSGGQCLYSACPIFTKIQGTCYRGKAKCCK-OH; disulfide 5-34, 12-27, 17-35 (inferred); N-terminus and C-terminus assumed)	59.1%	41	could not			
GIGDPVTCLKSGAICHPVFCPRRYKQIGTCGLPGTKCCKKP (disulfide 8-37, 15-30, 20-38 (inferred)) [HBD-2]	34.5% and 26.0%	65	could not	bound to capsule		Bactericidal activity against the Sterne strain [2]: modest bactericidal activity
GIINTLQKYYCRVRGGRCAVLSCLPKEEQIGKCSTRGRKCCRRKK (disulfide 11-40, 18-33, 23-41 (inferred)) [HBD-3]		71	could kill	bound to capsule	0.2 to 20	Localisation of HBD-3 on bacilli [4]: only on the outer surface of the capsule; % reduction of MFI [5]: 29.6639% and 31.2268% and 35.1463% and 34.7672%; % reduction of MFI, avg [5]: 32.7011%; mean fluorescence intensity (MFI) [5]: 706.28 and 766.2 and 635.97 and 635.34 and 496.77 and 526.94 and 412.45 and 414.45; mean fluorescence intensity (MFI), avg [5]: 685.947 and 462.653; killing ([1]; 0.2 μg/ml): 58%
Melittin					0.1 to 100	
Nisin					0.1 to 100	
Polymyxin B					1 to 100	
